Columns and labels:
[1] = system: duck salad; test: Test B flood test duck salad; assay type: in vivo, Heteranthera limosa
Summary of the method: (§1)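 Flood test on plants grown to the 2-leaf stage; treated plants kept in greenhouse twelve to sixteen days, then visually rated against controls on a 0 (no effect) to 10 (complete control) scale.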

[2] = system: purple nutsedge; test: Test B pre/postemergence purple nutsedge; assay type: in vivo, Cyperus rotundus
Summary of the method: (§2)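 Response is a visual 0-to-10 score relative to untreated plants, where 0 means no effect and 10 means complete control, taken twelve to sixteen days after application. Treatments went onto soil at planting and onto foliage of 1- to 4-leaf plants, using a surfactant-containing non-phytotoxic solvent.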

[3] = system: wheat; test: Test B pre/postemergence wheat; assay type: in vivo, Triticum aestivum
Summary of the method: as §2

[4] = system: soybean; test: Test B pre/postemergence soybean; assay type: in vivo, Glycine max
Summary of the method: as §2

[5] = system: cocklebur; test: Test B pre/postemergence cocklebur; assay type: in vivo, Xanthium strumarium
Summary of the method: as §2

[6] = system: corn; test: Test B pre/postemergence corn; assay type: in vivo, Zea mays
Summary of the method: as §2

[7] = system: sugar beet; test: Test B pre/postemergence sugar beet; assay type: in vivo, Beta vulgaris
Summary of the method: as §2

[8] = system: blackgrass; test: Test B pre/postemergence blackgrass; assay type: in vivo, Alopecurus myosuroides
Summary of the method: as §2

[9] = system: smallflower flatsedge; test: Test B flood test smallflower flatsedge; assay type: in vivo, Cyperus difformis
Summary of the method: as §1

[10] = system: rice; test: Test B flood test rice; assay type: in vivo, Oryza sativa
Summary of the method: as §1

[11] = system: bamyardgrass; test: Test B flood test barnyardgrass; assay type: in vivo, Echinochloa crus-galli
Summary of the method: as §1

[12] = system: surinam grass; test: Test B pre/postemergence surinam grass; assay type: in vivo, Brachiaria decumbens
Summary of the method: as §2

[13] = system: pigweed; test: Test B pre/postemergence pigweed; assay type: in vivo, Amaranthus retroflexus
Summary of the method: as §2

[14] = system: giant foxtail; test: Test B pre/postemergence giant foxtail; assay type: in vivo, Setaria faberii
Summary of the method: as §2

[15] = system: crabgrass; test: Test B pre/postemergence crabgrass; assay type: in vivo, Digitaria sanguinalis
Summary of the method: as §2

[16] = system: rape; test: Test B pre/postemergence rape; assay type: in vivo, Brassica napus
Summary of the method: as §2

[17] = Rate 62 g/ha, headed Pre-emergence (flood test species), scale 0 to 10 (0 no effect, 10 complete control)
[18] = Rate 125 g/ha, Pre-emergence, flood test species, scale 0 to 10 where 0 is no effect and 10 is complete control
[19] = Rate 250 g/ha, Pre-emergence, flood-test species, scale 0 to 10, 0 is no effect, 10 is complete control
[20] = Rate 500 g/ha, Pre-emergence, flood test species, scale 0 to 10 (0 no effect, 10 complete control)
[21] = Preemergence, Rate 62 g/ha, scale of 0 to 10 where 0 is no effect and 10 is complete control
[22] = Preemergence, Rate 500 g/ha, scale of 0 to 10 where 0 is no effect and 10 is complete control
[23] = Rate 62 g/ha, Postemergence, scale 0 to 10 (0 no effect, 10 complete control)
[24] = Rate 125 g/ha, Postemergence, scale of 0 to 10 where 0 is no effect and 10 is complete control
[25] = Rate 250 g/ha, Postemergence, scale of 0 to 10 where 0 is no effect and 10 is complete control
[26] = Preemergence, Rate 250 g/ha, scale of 0 to 10 where 0 is no effect and 10 is complete control
[27] = Rate 500 g/ha, Postemergence, scale 0 to 10, 0 no effect, 10 complete control

CC(C)N(C(=O)n1oc(=O)n(Cc2nnsc2Cl)c1=O)c1ccccc1 [Compound 321]
Ducksalad plant response rating [1, 17]: 0
Ducksalad plant response rating [1, 18]: 0
Ducksalad plant response rating [1, 19]: 0
Ducksalad plant response rating [1, 20]: 0
Nutsedge plant response rating [2, 21]: 0
Nutsedge plant response rating (0 to 10 scale) ([2]; Preemergence, Rate 125 g/ha): 0
Nutsedge plant response rating [2, 22]: 0
Nutsedge plant response rating [2, 23]: 0
Nutsedge plant response rating [2, 24]: 0
Plant response rating, Nutsedge [2, 25]: 0
Wheat plant response rating [3, 21]: 0
Wheat plant response rating (0 to 10 scale) ([3]; Preemergence, Rate 125 g/ha): 0
Wheat plant response rating [3, 26]: 0
Wheat plant response rating [3, 22]: 0
Wheat plant response rating [3, 23]: 0
Wheat plant response rating [3, 24]: 0
Plant response rating, Wheat [3, 25]: 0
Soybean plant response rating [4, 21]: 0
Soybean plant response rating (0 to 10 scale) ([4]; Preemergence, Rate 125 g/ha): 0
Soybean plant response rating [4, 26]: 0
Soybean plant response rating [4, 22]: 0
Soybean plant response rating [4, 23]: 2
Plant response rating, Soybean [4, 25]: 3
Cocklebur plant response rating [5, 21]: 0
Cocklebur plant response rating (0 to 10 scale) ([5]; Preemergence, Rate 125 g/ha): 0
Cocklebur plant response rating [5, 26]: 0
Cocklebur plant response rating [5, 22]: 0
Cocklebur plant response rating [5, 23]: 0
Cocklebur plant response rating [5, 24]: 0
Plant response rating, Cocklebur [5, 25]: 0
Cocklebur plant response rating [5, 27]: 0
Corn plant response rating [6, 21]: 0
Corn plant response rating (0 to 10 scale) ([6]; Preemergence, Rate 125 g/ha): 0
Corn plant response rating [6, 26]: 0
Corn plant response rating [6, 22]: 0
Corn plant response rating [6, 23]: 0
Corn plant response rating [6, 24]: 0
Plant response rating, Corn [6, 25]: 0
Corn plant response rating [6, 27]: 0
Sugarbeets plant response rating [7, 21]: 0
Sugarbeets plant response rating (0 to 10 scale) ([7]; Preemergence, Rate 125 g/ha): 0
Sugarbeets plant response rating [7, 26]: 0
Sugarbeets plant response rating [7, 22]: 0
Sugarbeets plant response rating [7, 23]: 0
Sugarbeets plant response rating [7, 24]: 0
Plant response rating, Sugarbeets [7, 25]: 5
Blackgrass plant response rating [8, 21]: 3
Blackgrass plant response rating (0 to 10 scale) ([8]; Preemergence, Rate 125 g/ha): 6
Blackgrass plant response rating [8, 26]: 6
Blackgrass plant response rating [8, 22]: 7
Blackgrass plant response rating [8, 23]: 0
Blackgrass plant response rating [8, 24]: 0
Plant response rating, Blackgrass [8, 25]: 0
Blackgrass plant response rating [8, 27]: 4
S. Flatsedge plant response rating [9, 17]: 0
S. Flatsedge plant response rating [9, 18]: 0
S. Flatsedge plant response rating [9, 19]: 0
S. Flatsedge plant response rating [9, 20]: 0
Rice plant response rating [10, 17]: 0
Rice plant response rating [10, 18]: 0
Rice plant response rating [10, 19]: 0
Rice plant response rating [10, 20]: 0
Barnyardgrass plant response rating [11, 17]: 0
Barnyardgrass plant response rating [11, 18]: 0
Barnyardgrass plant response rating [11, 19]: 0
Barnyardgrass plant response rating [11, 20]: 0
B. signalgrass plant response rating [12, 21]: 0
B. signalgrass plant response rating (0 to 10 scale, 0 is no effect, 10 is complete control) ([12]; Preemergence, Rate 125 g/ha): 0
B. signalgrass plant response rating [12, 26]: 3
B. signalgrass plant response rating [12, 22]: 5
B. signalgrass plant response rating [12, 23]: 0
B. signalgrass plant response rating [12, 24]: 0
Plant response rating, B. signalgrass [12, 25]: 0
B. signalgrass plant response rating [12, 27]: 0
Redroot pigweed plant response rating [13, 21]: 0
Redroot pigweed plant response rating (0 to 10 scale) ([13]; Preemergence, Rate 125 g/ha): 0
Redroot pigweed plant response rating [13, 26]: 0
Redroot pigweed plant response rating [13, 22]: 0
Redroot pigweed plant response rating [13, 23]: 2
Redroot pigweed plant response rating [13, 24]: 3
Plant response rating, Redroot pigweed [13, 25]: 4
Giant foxtail plant response rating [14, 21]: 4
Giant foxtail plant response rating (0 to 10 scale) ([14]; Preemergence, Rate 125 g/ha): 8
Giant foxtail plant response rating [14, 26]: 9
Giant foxtail plant response rating [14, 22]: 10
Giant foxtail plant response rating [14, 23]: 0
Giant foxtail plant response rating [14, 24]: 0
Plant response rating, Giant foxtail [14, 25]: 1
Crabgrass plant response rating [15, 21]: 0
Crabgrass plant response rating (0 to 10 scale) ([15]; Preemergence, Rate 125 g/ha): 2
Crabgrass plant response rating [15, 26]: 3
Crabgrass plant response rating [15, 22]: 4
Crabgrass plant response rating [15, 23]: 0
Crabgrass plant response rating [15, 24]: 0
Plant response rating, Crabgrass [15, 25]: 2
Rape plant response rating [16, 21]: 0
Rape plant response rating (0 to 10 scale) ([16]; Preemergence, Rate 125 g/ha): 0
Rape plant response rating [16, 26]: 0
Rape plant response rating [16, 22]: 0
Rape plant response rating [16, 23]: 0
Rape plant response rating [16, 24]: 0
Plant response rating, Rape [16, 25]: 0

— patent US6737383B1, “Herbicidal oxadiazolidines” (priority 1999, dated 2004)
